Results as given in patent US12227482B2, “Compounds and compositions for the treatment of cancer” (The Regents of the University of California, priority 2016, dated 2025).

Tests used:
Format in all cases: cell-based
LOX cells = experiment: Cell viability (CellTiter-Glo ATP content) in LOX cells; conditions: LOX, 72 h, 72 hours treatment, cell survival by CellTiter-Glo, 2% fetal bovine serum
Description: (§1) Logarithmically growing A549, LOX and MelJuSo cells (ATCC) were plated in antibiotic-free RPMI medium (Coming) supplemented with 2% fetal bovine serum (Gemini Bio-products) at a density of 5,000 cells per well in clear-bottom 96-well plates. The next day cells were treated (triplicates) with increasing doses of a compound of the present disclosure (dissolved in DMSO) and DMSO vehicle controls (final DMSO concentration of 0.5%) for 72 hours and subsequently assessed for cell viability by measuring ATP content with CellTiter-Glo Luminescent Cell Viability Assay (Promega). Signal intensity was measured on a Glomax™ 96 Microplate Luminometer (Promega) and percent cell survival was calculated based on the reading of vehicle control cells set as 100%.

MelJuSo cells = experiment: Cell viability (CellTiter-Glo ATP content) in MelJuSo cells; conditions: Homo sapiens, MEL-JUSO, 72 hours treatment, cell survival by CellTiter-Glo, 2% fetal bovine serum
Description: as §1

A549 cells = experiment: Cell viability (CellTiter-Glo ATP content) in A549 cells; conditions: Homo sapiens, A549, 72 h, 72 hours treatment, cell survival by CellTiter-Glo, 2% fetal bovine serum
Description: as §1

Structure (SMILES) | IC50 (LOX cells) [µM] | IC50 (MelJuSo cells) [µM] | IC50 (A549 cells) [µM]
COCCNC(=O)C1(C)C(c2ccc(C)s2)C(c2ccc(F)cc2)=NN1c1ccc(F)cc1F (stereo not drawn) [Compound 100, 1-(2,4-difluorophenyl)-3-(4-fluorophenyl)-N-(2-methoxyethyl)-5-methyl-4-(5-methylthiophen-2-yl)-4,5-dihydro-1H-pyrazole-5-carboxamide] | 1 to 2 | 0.25 to 0.5 | > 2
CCCCC1C(c2ccc(F)cc2)=NN(c2ccc(F)cc2F)C1(C)C(=O)NCCCOC (stereo not drawn) [Compound 5, 4-butyl-1-(2,4-difluorophenyl)-3-(4-fluorophenyl)-N-(3-methoxypropyl)-5-methyl-4,5-dihydro-1H-pyrazole-5-carboxamide] | 1 to 2 | 0.5 to 1 | 1 to 2
CCCCC1C(c2ccc(F)cc2)=NN(c2ccc(C)cc2)C1(C)C(=O)NCCCOC (stereo not drawn) [Compound 16, 4-butyl-3-(4-fluorophenyl)-N-(3-methoxypropyl)-5-methyl-1-p-tolyl-4,5-dihydro-1H-pyrazole-5-carboxamide] | > 2 | 0.5 to 1 | > 2
CCCCC1C(c2ccc(F)cc2)=NN(c2ccccc2)C1(C)C(=O)NC(C)(C)CO (stereo not drawn) [Compound 37, 4-butyl-3-(4-fluorophenyl)-N-(1-hydroxy-2-methylpropan-2-yl)-5-methyl-1-phenyl-4,5-dihydro-1H-pyrazole-5-carboxamide] | > 2 | > 2 | > 2
CCCCC1C(c2ccc(F)cc2)=NN(c2ccc(Cl)cc2)C1(C)C(=O)NCCCOC (stereo not drawn) [Compound 13, 4-butyl-1-(4-chlorophenyl)-3-(4-fluorophenyl)-N-(3-methoxypropyl)-5-methyl-4,5-dihydro-1H-pyrazole-5-carboxamide] | > 2 | > 2 | > 2
CC1(C(=O)NCCNC(=O)CCCCC2SC[C@@H]3NC(=O)N[C@H]23)C(c2cccs2)C(c2ccc(F)cc2)=NN1c1ccc(F)cc1F (stereo partly drawn) [Compound 125, 1-(2,4-difluorophenyl)-3-(4-fluorophenyl)-5-methyl-N-(2-(5-((3aS,6aR)-2-oxohexahydro-1H-thieno[3,4-d]imidazol-4-yl)pentanamido)ethyl)-4-(thiophen-2-yl)-4,5-dihydro-1H-pyrazole-5-carboxamide] | > 2 | > 2 | > 2
CCCCC1C(c2ccc(F)cc2)=NN(c2cccc(F)c2)C1(C)C(=O)NCCCOC (stereo not drawn) [Compound 8, 4-butyl-1-(3-fluorophenyl)-3-(4-fluorophenyl)-N-(3-methoxypropyl)-5-methyl-4,5-dihydro-1H-pyrazole-5-carboxamide] | > 2 | 1 to 2 | > 2
CCCCC1C(c2ccc(F)cc2)=NN(c2ccc(F)cc2F)C1(C)C(=O)NCCC(=O)OC (stereo not drawn) [Compound 31, methyl 3-(4-butyl-1-(2,4-difluorophenyl)-3-(4-fluorophenyl)-5-methyl-4,5-dihydro-1H-pyrazole-5-carboxamido)propanoate] | 1 to 2 | 0.5 to 1 | 1 to 2
CN(C)CCNC(=O)CNC(=O)C1(C)C(c2cccs2)C(c2ccc(F)cc2)=NN1c1ccc(F)cc1F (stereo not drawn) [Compound 107, 1-(2,4-difluorophenyl)-N-(2-(2-(dimethylamino)ethylamino)-2-oxoethyl)-3-(4-fluorophenyl)-5-methyl-4-(thiophen-2-yl)-4,5-dihydro-1H-pyrazole-5-carboxamide] | > 2 | 1 to 2 | > 2
CCCCC1C(c2ccc(F)cc2)=NN(c2ccccc2)C1(C)C(=O)NCC(C)CN(C)C (stereo not drawn) [Compound 77, 4-butyl-N-(3-(dimethylamino)-2-methylpropyl)-3-(4-fluorophenyl)-5-methyl-1-phenyl-4,5-dihydro-1H-pyrazole-5-carboxamide] | > 2 | > 2 | 0.25 to 0.5
CNC(=O)CNC(=O)C1(C)C(c2cccs2)C(c2ccc(F)cc2)=NN1c1ccc(F)cc1F (stereo not drawn) [Compound 123, 1-(2,4-difluorophenyl)-3-(4-fluorophenyl)-5-methyl-N-(2-(methylamino)-2-oxoethyl)-4-(thiophen-2-yl)-4,5-dihydro-1H-pyrazole-5-carboxamide] | > 2 | 1 to 2 | > 2
CC(C)(CO)CCCNC(=O)C1(C)C(c2ccncc2)C(c2ccc(F)cc2)=NN1c1ccccc1 (stereo not drawn) [Compound 21, 3-(4-fluorophenyl)-N-(5-hydroxy-4,4-dimethylpentyl)-5-methyl-1-phenyl-4-(pyridin-4-yl)-4,5-dihydro-1H-pyrazole-5-carboxamide] | > 2 | > 2 | > 2
CCCCC1C(c2ccc(F)cc2)=NN(c2ccc(F)cc2F)C1(C)C(=O)NCCCCOC (stereo not drawn) [Compound 25, 4-butyl-1-(2,4-difluorophenyl)-3-(4-fluorophenyl)-N-(4-methoxybutyl)-5-methyl-4,5-dihydro-1H-pyrazole-5-carboxamide] | > 2 | 1 to 2 | > 2
CCCCC1C(c2ccc(F)cc2)=NN(c2ccccc2)C1(C)C(=O)NCCCCC(C)(C)O (stereo not drawn) [Compound 2, 4-butyl-3-(4-fluorophenyl)-N-(5-hydroxy-5-methylhexyl)-5-methyl-1-phenyl-4,5-dihydro-1H-pyrazole-5-carboxamide] | 1 to 2 | 0.5 to 1 | 1 to 2
CCCCC1C(c2ccc(F)cc2)=NN(c2ccc(Cl)cc2F)C1(C)C(=O)NCCOC (stereo not drawn) [Compound 64, 4-butyl-1-(4-chloro-2-fluorophenyl)-3-(4-fluorophenyl)-N-(2-methoxyethyl)-5-methyl-4,5-dihydro-1H-pyrazole-5-carboxamide] | < 0.25 | < 0.25 | 0.25 to 0.5
COCCNC(=O)C1(C)C(c2ccco2)C(c2ccc(F)cc2F)=NN1c1ccc(F)cc1F (stereo not drawn) [Compound 116, 1,3-bis(2,4-difluorophenyl)-4-(furan-2-yl)-N-(2-methoxyethyl)-5-methyl-4,5-dihydro-1H-pyrazole-5-carboxamide] | < 0.25 | < 0.25 | 0.25 to 0.5
CCCCC1C(c2ccc(F)cc2)=NN(c2ccc(F)cc2Cl)C1(C)C(=O)NCCCC(C)(C)CO (stereo not drawn) [Compound 22, 4-butyl-1-(2-chloro-4-fluorophenyl)-3-(4-fluorophenyl)-N-(5-hydroxy-4,4-dimethylpentyl)-5-methyl-4,5-dihydro-1H-pyrazole-5-carboxamide] | > 2 | > 2 | > 2
COC(=O)CNC(=O)C1(C)C(c2ccc(F)cc2F)=NN(c2ccc(F)cc2F)C1c1ccc(Cl)o1 (stereo not drawn) [Compound 137, methyl 2-(5-(5-chlorofuran-2-yl)-1,3-bis(2,4-difluorophenyl)-4-methyl-4,5-dihydro-1H-pyrazole-4-carboxamido)acetate] | > 2 | 0.5 to 1 | > 2
CCCCC1C(c2ccc(F)cc2F)=NN(c2ccccc2)C1(C)C(=O)NCCCC(C)(C)CO (stereo not drawn) [Compound 56, 4-butyl-3-(2,4-difluorophenyl)-N-(5-hydroxy-4,4-dimethylpentyl)-5-methyl-1-phenyl-4,5-dihydro-1H-pyrazole-5-carboxamide] | 1 to 2 | 0.5 to 1 | > 2
CCCCC1C(c2ccc(F)cc2)=NN(c2ccccc2)C1(C)C(=O)N[C@H](C)c1ccccc1 (stereo partly drawn) [Compound 43, 4-butyl-3-(4-fluorophenyl)-5-methyl-1-phenyl-N-((R)-1-phenylethyl)-4,5-dihydro-1H-pyrazole-5-carboxamide] | > 2 | > 2 | > 2
CCCCC1C(c2ccc(F)c(F)c2)=NN(c2ccccc2)C1(C)C(=O)NCCCCC(C)(C)O (stereo not drawn) [Compound 10, 4-butyl-3-(3,4-difluorophenyl)-N-(5-hydroxy-5-methylhexyl)-5-methyl-1-phenyl-4,5-dihydro-1H-pyrazole-5-carboxamide] | 1 to 2 | 0.5 to 1 | > 2
CCCCC1C(c2c(F)cc(F)cc2F)=NN(c2ccc(F)cc2F)C1(C)C(=O)NCC(=O)OC (stereo not drawn) [Compound 98, methyl 2-(4-butyl-1-(2,4-difluorophenyl)-5-methyl-3-(2,4,6-trifluorophenyl)-4,5-dihydro-1H-pyrazole-5-carboxamido)acetate] | > 2 | 0.5 to 1 | > 2
CCCCC1C(c2ccc(F)cc2)=NN(c2ccccc2)C1(C)C(=O)NCc1ccc(O)c(OC)c1 (stereo not drawn) [Compound 66, 4-butyl-3-(4-fluorophenyl)-N-(4-hydroxy-3-methoxybenzyl)-5-methyl-1-phenyl-4,5-dihydro-1H-pyrazole-5-carboxamide] | > 2 | > 2 | > 2
CCCCC1C(c2ccc(F)cc2)=NN(c2ccccc2)C1(C)C(=O)N(C)Cc1ccc(OC)c(OC)c1 (stereo not drawn) [Compound 47, 4-butyl-N-(3,4-dimethoxybenzyl)-3-(4-fluorophenyl)-N,5-dimethyl-1-phenyl-4,5-dihydro-1H-pyrazole-5-carboxamide] | > 2 | > 2 | > 2
CCCCC1C(c2ccc(F)cc2)=NN(c2ccc(F)cc2F)C1(C)C(=O)NCCOC (stereo not drawn) [Compound 6, 4-butyl-1-(2,4-difluorophenyl)-3-(4-fluorophenyl)-N-(2-methoxyethyl)-5-methyl-4,5-dihydro-1H-pyrazole-5-carboxamide] | 0.5 to 1 | 0.5 to 1 | 0.5 to 1
